The test system of experiment [1] is white spot syndrome virus (WSSV). Kind of experiment: Antiviral effect against shrimp virus: injection of peptide-treated WSSV into shrimp. Particulars: WSSV mixed with equal volume of 100 μg/mL peptide solution, 25° C. 1 hour, 0.1 mL intramuscular; observed 2 weeks; 10 shrimps per group. Format: in vivo, Penaeus monodon (black tiger shrimp). On the procedure: Penaeus monodon (black tiger shrimp) weighing about 20 g were divided at random into groups each consisting of 10 shrimps and raised separately. A viral culture fluid prepared by diluting the white spot syndrome virus (WSSV LD50 value; 10^−3.6) 2000-fold with Hank's solution was mixed with an equal volume of a diluted solution (100 μg/mL) of the present peptides MA026 and BTI-MA026. After the mixture was incubated at 25° C. for 1 hour, the solution was intramuscularly injected at a dose of 0.1 mL into each shrimp, for viral inoculation. Whether the shrimps were actually inoculated with the virus or not was determined by observing them for 2 weeks after viral infection, and pathologically examining the ones that dies. The lesion tissues were examined to detect the viral gene by the PCR method. In the control group, Hank's solution only was used.

A further experiment relates to IHNV HV7601 strain. Kind of experiment: Antiviral activity by plaque reduction, IHNV in CHSE-214 cells. Particulars: decrease in number of plaques, sample and virus pre-incubated at 10° C. for 2 hours. The format is cell-based, infectious hematopoietic necrosis virus (IHNV) in salmonid. How it is done:
(§1) Evaluation of the antiviral activity was conducted by the same method as described by Burke et al. (Appln. Env. Microbiol., 29, 872-876, 1980) except for the following partial modification. • (1) A sample to be measured for its antiviral activity is dissolved in dimethyl sulfoxide (DMSO) and then diluted with Hank's solution. • (2) 0.2 mL each of the diluted solution in (1) and a viral solution (IHNV HV7601 strain; 100 to 200 PFU/sample) diluted with Hank's solution are mixed and incubated at 10° C. for 2 hours. • (3) After the incubation in (2), the sample is inoculated for 30 minutes in CHSE-214 cells previously cultured for 24 hours in a 24-well cell culture plate. • (4) The sample is removed from each well, and an MEM medium containing. 0.8% methyl cellulose is overlaid on the cells and cultured for 7 days. • (5) The cells on the culture plate are fixed in 3.7% aqueous formalin, and after staining with 1% Crystal Violet, the number of plaques is counted. • (6) The antiviral activity is expressed in terms of the decrease in the number of plaques, relative to that decrease on wells to which the sample was not added. (Composition of the Medium) • a) 5.00 g polypeptone, 2.50 g meat extract, 2.50 g yeast extract, 0.20 g K2HPO4, 0.05 g MgSO4, 1.00 g glucose, 5.00 g NaCl, 1000 mL distilled water, pH 7.5, which were autoclaved at 121° C. for 15 minutes. • b) 15.00 g agar for microorganisms is added to a).
In the following examples, the evaluation of the antiviral activity was conducted in the method described above.
(§2) The antiviral activities of the present peptide MA026 against infectious hematopoietic necrosis virus (IHNV) in salmonid, rhabdovirus (EVA) in American eels and rhabdovirus (EVEX) in European eels were measured according to the method described in Example 1.

Another experiment has as its system hepatitis C virus (HCV). The format is cell-based. Particulars: summary of Table 14. On the procedure:
Using the present peptides MA026, BTI-MA026 and R2MA026 as objects, the antiviral effect against hepatitis C virus (HCV) was examined. The experiments were conducted according to the method of Mizutani et al. (Biochem. Biophys. Res. Commun. 227, 822-826, 1996) under supervision of Dr. Kunitada Shimotohno at Institute for Viral Research, Kyoto University. • (1) 1×10^6 gene titer per 0.1 mL of HCV was infected with 1×10^6 MT-2C cells per 1 mL, and cultured at 32° C. for 4 days. • (2) The infected cells of (1) were divided (10^5 cells per well) into a 96-well plate and incubated at 32° C. for 1 day. • (3) Each of the present peptides was added to each well so that the concentration thereof became 1 μM and 5 μM, and incubated at 32° C. for further 2 days. • (4) RNA was extracted from the test cells, and after synthesized cDNA with a reverse transcriptase, PCR of first and second round were performed to detect the HCV gene. • (5) The inhibition effect against HCV was evaluated by comparing fluorescence intensities of the PCR products originated from the HCV infected cells to which the test sample was added, assuming the fluorescence intensity of the PCR product originated from the infected cells to which no test substance was added, to be 100%.

The subject of experiment [2] is rhabdovirus (EVEX) in European eels. Kind of experiment: Antiviral activity by plaque reduction, EVEX. Format: cell-based. Particulars: method of Example 1, decrease in number of plaques. How it is done: as §1, with “(Composition of the Medium) • a) 5.00 g polypeptone, 2.50 g meat extract, 2.50 g yeast extract, 0.20 g K2HPO4, 0.05 g MgSO4, 1.00 g glucose, 5.00 g NaCl, 1000 mL distilled water, pH 7.5, which were autoclaved at 121° C. for 15 minutes. • b) 15.00 g agar for microorganisms is added to a).” left out
as §2

Experiment [3] deals with rhabdovirus (EVA) in American eels. Briefly: Antiviral activity by plaque reduction, EVA. The format is cell-based. Particulars: method of Example 1, decrease in number of plaques. How it is done:
as §1, with “(Composition of the Medium) • a) 5.00 g polypeptone, 2.50 g meat extract, 2.50 g yeast extract, 0.20 g K2HPO4, 0.05 g MgSO4, 1.00 g glucose, 5.00 g NaCl, 1000 mL distilled water, pH 7.5, which were autoclaved at 121° C. for 15 minutes. • b) 15.00 g agar for microorganisms is added to a).” left out
as §2

Where a SMILES comes first, the peptide text is derived from it. Bridges are numbered along the chain shown (N, C = ends). [ ]: non-standard residue; d: D form. The star is where a group is joined. ξ: configuration not given here. Decanoyl(3ξ-OH) = CCCCCCCC(O)CC(=O)*; X1 = CCCCCC/C=C/CC(O)CC(=O)*; Dab = NCC[CH](N)C(=O)O

In the case of `CCCCCCCC(O)CC(=O)NC(CC(C)C)C(=O)NC(CCC(=O)O)C(=O)NC(CCN)C(=O)NC(C(=O)NC(CC(C)C)C(=O)NC(CCN)C(=O)NC1COC(=O)C(C(C)CC)NC(=O)C(CCN)NC(=O)C(CC(C)C)NC(=O)C(CCN)NC(=O)C(CC(C)C)NC(=O)C(CC(C)C)NC(=O)C(C(C)C)NC1=O)C(C)C` (stereo not drawn) [BTI-MA026] ({Decanoyl(3ξ-OH)}-LE[Dab]VL[Dab]SVLL[Dab]L[Dab]I; ester 7-C; configuration not given here), the “dead shrimp after inoculation with WSSV” value in experiment [1] is listed as “no dead shrimp”. Further, the “antiviral activity against IHNV” value in the experiment with IHNV HV7601 strain was “confirmed”. The “proliferation of hepatitis C virus” value with hepatitis C virus (HCV) is on record as “inhibited”.

Consider `CCCCCCCC(O)CC(=O)NC(CC(C)C)C(=O)NC(CCC(=O)O)C(=O)NC(CCN)C(=O)NC(C(=O)NC(CC(C)C)C(=O)NC(CCN)C(=O)NC(CO)C(=O)NC(C(=O)NC(CC(C)C)C(=O)NC(CC(C)C)C(=O)NC(CCN)C(=O)NC(CC(C)C)C(=O)NC(CCN)C(=O)NC(C(=O)O)C(C)CC)C(C)C)C(C)C` (stereo not drawn) [BTI-base MA026] ({Decanoyl(3ξ-OH)}-LE[Dab]VL[Dab]SVLL[Dab]L[Dab]I-OH; configuration not given here), for which, in the experiment with IHNV HV7601 strain, the “antiviral activity against IHNV” value is “confirmed”.

Take `CCCCCCCC(O)CC(=O)NC(CC(C)C)C(=O)NC(CCC(=O)O)C(=O)NC(CCC(N)=O)C(=O)NC(C(=O)NC(CC(C)C)C(=O)NC(CCC(N)=O)C(=O)NC1COC(=O)C(C(C)CC)NC(=O)C(CCC(N)=O)NC(=O)C(CC(C)C)NC(=O)C(CCC(N)=O)NC(=O)C(CC(C)C)NC(=O)C(CC(C)C)NC(=O)C(C(C)C)NC1=O)C(C)C` (stereo not drawn) [MA026] ({Decanoyl(3ξ-OH)}-LEQVLQSVLLQLQI; ester 7-C; configuration not given here): the “antiviral activity against EVEX” value in experiment [2] is on record as “high antiviral activity”. Besides, in experiment [1], the “dead shrimp after inoculation with WSSV” value was “no dead shrimp”. Besides, the “antiviral activity against EVA” value in experiment [3] is recorded as “high antiviral activity”. The “antiviral activity against IHNV” value in the experiment with IHNV HV7601 strain is recorded as “high antiviral activity”. In addition, in the experiment on hepatitis C virus (HCV), the “proliferation of hepatitis C virus” value was “inhibited”.

For `CCCCCCCC(O)CC(=O)NC(CC(C)C)C(=O)NC(CCC(=O)O)C(=O)NC(CCC(N)=O)C(=O)NC(C(=O)NC(CC(C)C)C(=O)NC(CCC(N)=O)C(=O)NC1COC(=O)C(CC(C)C)NC(=O)C(CCC(N)=O)NC(=O)C(CC(C)C)NC(=O)C(CCC(N)=O)NC(=O)C(CC(C)C)NC(=O)C(C(C)C)NC(=O)C(C(C)C)NC1=O)C(C)C` (stereo not drawn) [R1MA026] ({Decanoyl(3ξ-OH)}-LEQVLQSVVLQLQL; ester 7-C; configuration not given here), the “antiviral activity against IHNV” value with IHNV HV7601 strain was “confirmed”.

Take `CCCCCC/C=C/CC(O)CC(=O)NC(CC(C)C)C(=O)NC(CCC(=O)O)C(=O)NC(CCC(N)=O)C(=O)NC(C(=O)NC(CC(C)C)C(=O)NC(CCC(N)=O)C(=O)NC1COC(=O)C(C(C)CC)NC(=O)C(CCC(N)=O)NC(=O)C(CC(C)C)NC(=O)C(CCC(N)=O)NC(=O)C(CC(C)C)NC(=O)C(CC(C)C)NC(=O)C(C(C)C)NC1=O)C(C)C` (stereo not drawn) [R2MA026] (X1-LEQVLQSVLLQLQI; ester 7-C; configuration not given here): the “antiviral activity against IHNV” value in the experiment with IHNV HV7601 strain is recorded as “confirmed”. For the same compound, the “proliferation of hepatitis C virus” value with hepatitis C virus (HCV) is “inhibited”.

Values taken from patent publication US7268209B2, “Peptides, derivates thereof, process for producing the same, novel strain producing the same, and antiviral agent comprising the same as active ingredient” (Toyo Suisan Kaisha, Ltd., priority 2001, dated 2007).
